What all share (assay type): cell-based, canine
Assay [1] deals with catalase (CAT). The experiment in a line: Enzymatic activity of catalase in treated cbTCC cells (Cayman kit, Purpald). To be noted: 24 hours, mean ± standard deviation, control 11.20 ± 0.43. The method, then: Treatments were done in at least triplicates. […] The enzymatic activity of catalase was determined using assay kits from Cayman Chemical Co., Ann Arbor, Mich., according to manufacturer's directions. The assay utilized the peroxidatic function of CAT for determination of enzymatic activity, based on the reaction of the enzyme with methanol in the presence of an optimal concentration of H2O2. […] Purpald specifically forms a bicyclic heterocycle with aldehydes, which upon oxidation changes from colorless to a purple color. The absorbance was read at 540 nm using a spectrophotometric plate reader. Results were calculated from standard curve from known samples and by using the provided equations. From that, the enzymatic activity of CAT was derived as nmol/min/ml CAT. Samples were done in triplicate. A one-tail t-test assuming equal variance was performed to determine significance.

In a further assay the test system is MnSOD. The experiment in a line: Quantitative PCR gene expression of MnSOD in cbTCC cells. To be noted: 24 hours, normalized to Cyclophilin A, mean ± SEM, control 1.28 ± 0.05.
The next assay concerns PTHrP. The experiment in a line: Quantitative PCR gene expression of PTHrP in cbTCC cells. To be noted: 24 hours, normalized to Cyclophilin A, mean ± SEM, control 1.35 ± 0.09.
For the next assay, the system named is Cu/ZnSOD. The experiment in a line: Quantitative PCR gene expression of Cu/ZnSOD in cbTCC cells. To be noted: 24 hours, normalized to Cyclophilin A, mean ± SEM, control 1.11 ± 0.02.
The test system of the next assay is CAT. The experiment in a line: Quantitative PCR gene expression of CAT in cbTCC cells. To be noted: 24 hours, normalized to Cyclophilin A, mean ± SEM, control 1.86 ± 0.11.
The next assay relates to VDR. The experiment in a line: Quantitative PCR gene expression of VDR in cbTCC cells. To be noted: 24 hours, normalized to Cyclophilin A, mean ± SEM, control 2.09 ± 0.19.
The test system of assay [2] is manganese superoxide dismutase (MnSOD). The experiment in a line: Western blot analysis of MnSOD protein expression in cbTCC cells. To be noted: 10^−9M, 24 hours, normalized to β-actin, control = 100 percent, ± standard deviation. The method, then:
(§1) Treatments were done in at least triplicates. […] Harvested cells were homogenized, and analyzed for the production of manganese superoxide dismutase (MnSOD), copper/zinc superoxide dismutase (Cu/ZnSOD), catalase (CAT), and glutathione peroxidase (GPX). Cell lysates were collected after centrifugation, and total protein was quantitated. […] Transblotted membranes were blocked overnight at 4° C. with the addition of 5% skim milk in Tris-buffered saline (TBS). The membranes were cut at the molecular weight of 37 kD (green band) and 25 kD (pink band). The top part of the membranes were stained for CAT, GPX, and β-actin, and the bottom part for MnSOD and Cu/ZnSOD. The primary antibodies for specific proteins were used at the following dilutions: […] Secondary antibodies are their respective IgG-HRP conjugates used at 1:2000. […] CAT, MnSOD and Cu/ZnSOD, n=7; GPX, n=4. Prior to transforming data as percent of control, a one-tail paired t-test assuming equal variance was performed to determine significance.
For orientation: A western blot detects proteins with antibodies after separation by electrophoresis.

Assay [3] deals with copper/zinc superoxide dismutase (Cu/ZnSOD). The experiment in a line: Western blot analysis of Cu/ZnSOD protein expression in cbTCC cells. To be noted: 10^−9M, 24 hours, normalized to β-actin, control = 100 percent, ± standard deviation. The method, then:
as §1

The test system of assay [4] is glutathione peroxidase (GPX). The experiment in a line: Western blot analysis of GPX protein expression in cbTCC cells. To be noted: 10^−9M, 24 hours, normalized to β-actin, control = 100 percent, ± standard deviation. The method, then:
as §1

Assay [5] deals with catalase (CAT). The experiment in a line: Western blot analysis of catalase protein expression in cbTCC cells. To be noted: 10^−9M, 24 hours, normalized to β-actin, control = 100 percent, ± standard deviation. The method, then:
as §1

For `C=C1C(=CC=C2CCCC3(C)C(C(C)CC#CC(C)(C)O)=CCC23)CC(O)CC1O` (stereo not drawn) [Analog V, 1α,25-dihydroxy-16-ene-23-yne-vitamin D3], the “Enzymatic activity of catalase” value in the assay on catalase (CAT) [1] (10^−9M) was found to be 13.93 ± 0.53 nmol/min/mL.
On to `C=C1/C(=C\C=C2/CCC[C@]3(C)[C@@H]([C@H](C)CCCC(C)(C)O)CC[C@@H]23)C[C@@H](O)C[C@@H]1O` [Calcitriol, 1α,25-dihydroxyvitamin D3], for which the “MnSOD gene expression value by quantitative PCR” value in the assay on MnSOD (10^−7 M) amounted to 1.05 ± 0.03; with MnSOD (10^−9 M), 1.15 ± 0.04. Moreover, the figures for the “PTHrP gene expression value by quantitative PCR” value in the assay with PTHrP (10^−7 M) and in the assay on PTHrP (10^−9 M) were 1.16 ± 0.05 and 1.36 ± 0.11, respectively. Also, the “Enzymatic activity of catalase” value with catalase (CAT) [1] (10^−7M) turned out to be 12.24 ± 0.80 nmol/min/mL; with catalase (CAT) [1] (10^−9M), 12.51 ± 0.42 nmol/min/mL. For the same compound, the “Cu/ZnSOD gene expression value by quantitative PCR” value in the assay on Cu/ZnSOD (10^−7 M) is on record as 1.18 ± 0.03; in the assay with Cu/ZnSOD (10^−9 M) it was 1.16 ± 0.02. Further, the results for the “CAT gene expression value by quantitative PCR” value in the assay on CAT (10^−7 M) and in the assay on CAT (10^−9 M) were 2.60 ± 0.11 and 2.13 ± 0.06, respectively.
As to `C=C1/C(=C\C=C2/CCC[C@]3(C)[C@@H]([C@H](C)/C=C/C=C/C(O)(CC)CC)CC[C@@H]23)C[C@@H](O)C[C@@H]1O` [Seocalcitol, 1α,25-dihydroxy-22,24-diene-24,26,27-trihomovitamin D], the figures for the “MnSOD gene expression value by quantitative PCR” value in the assay on MnSOD (10^−7 M) and with MnSOD (10^−9 M) were 1.11 ± 0.05 and 1.16 ± 0.05, respectively. Further, the results for the “PTHrP gene expression value by quantitative PCR” value with PTHrP (10^−7 M) and with PTHrP (10^−9 M) were 1.20 ± 0.07 and 1.30 ± 0.02, respectively. Further, the “Enzymatic activity of catalase” value in the assay on catalase (CAT) [1] (10^−9M) was 13.99 ± 0.99 nmol/min/mL. Further, the “VDR gene expression value by quantitative PCR” value with VDR (10^−7 M) is 1.99 ± 0.09; in the assay on VDR (10^−9 M), 1.45 ± 0.10. The results for the “Cu/ZnSOD gene expression value by quantitative PCR” value in the assay on Cu/ZnSOD (10^−7 M) and in the assay on Cu/ZnSOD (10^−9 M) were 1.17 ± 0.01 and 1.20 ± 0.07, respectively. Besides, in assay [2], the “MnSOD protein expression, percent intensity of the protein band relative to the control” value was 113.48 ± 20.56%. For the same compound, the figures for the “CAT gene expression value by quantitative PCR” value in the assay on CAT (10^−7 M) and with CAT (10^−9 M) were 2.66 ± 0.08 and 2.55 ± 0.13, respectively. For the same compound, the “Cu/ZnSOD protein expression, percent intensity of the protein band relative to the control” value in assay [3] stood at 101.27 ± 26.41%. Besides, the “GPX protein expression, percent intensity of the protein band relative to the control” value in assay [4] is recorded as 81.85 ± 37.45%. Also, the “Catalase protein expression, percent intensity of the protein band relative to the control” value in the assay with catalase (CAT) [5] amounted to 162.68 ± 39.88%.

The values are drawn from patent US20130178450A1, “METHODS FOR INCREASING THE PRODUCTION OR ACTIVITY OF CATALASE” (Nestec SA, priority 2010, published 2013).
